Laboratory results published in US11247976B2, “Synthetic ligands that modulate the activity of the RhlR quorum sensing receptor” (Wisconsin Alumni Research Foundation, priority 2016, dated 2022).
Entries after “also recorded” stand apart in the source; their conditions may differ. Marks after values point to notes of the source that are not given here.

Legend:
[1] = biological target: T1, RhlR (Pseudomonas aeruginosa, UniProt P54292); experiment: E. coli RhlR reporter agonism assay (JLD271/pJN105R2/pSC11-rhlI*); type: cell-based, P. aeruginosa; conditions: for activation at 10 µM: compound at 10 μM, RhlR activity relative to 1 mM BHL; for Emax: read-out: Maximum Activation (%); for RhlR agonist potency in words: dose-response; for RhlR agonist activity in words: single-concentration screen at 10 μM
T1 construct: expressed in transfected cells; host or cells: E. coli JLD271 (ΔsdiA) with pJN105R2 (arabinose-induced) and pSC11-rhlI*
Procedure: (§1) All media and reagents for bacterial culture were purchased from commercial sources. Bacteria were cultured in Luria-Bertani broth (LB) at 37° C. with shaking at 200 rpm unless otherwise noted. The bacterial reporter strains used for this study were (i) the heterologous E. coli strain JLD271 (ΔsdiA) harboring the RhlR expression plasmid pJN105R2 and the rhlI-lacZ transcriptional fusion reporter pSC11-rhlI*, (ii) the heterologous E. coli strain JLD271 (ΔsdiA) harboring the LasR expression plasmid pJN105L and the […] transcriptional fusion reporter pSC11, and (iii) the P. aeruginosa strain PAO-JP2 (ΔlasrhlI) harboring the rhlI-gfp transcriptional fusion reporter prhlI-LVAgfp. Reporter strains JLD271/pJN105R2/pSC11-rhlI* and JLD271/pJN105L/pSC11 were grown in LB containing 100 μg/mL ampicillin and 10 μg/mL gentamicin. Freezer stocks of bacterial strains were maintained at −80° C. in 1:1 LB:50% glycerol.
(§2) To evaluate the modulatory activities of library compounds on RhlR and LasR using E. coli reporters, the strains JLD271/pJN105R2/pSC11-rhlI* and JLD271/pJN105L/pSC11 were used, respectively, as previously described.^38, 51 The following modifications were used in the RhlR agonism reporter assay, non-native compounds (10 μM or 1 mM) were compared to 1 mM BHL as the positive control. Briefly, a subculture was prepared by diluting an overnight culture 1:10 with fresh media containing 100 μg/mL ampicillin and 10 μg/mL gentamicin, and was incubated until it had grown to OD600=0.45. In all assays, L-arabinose was added to a final concentration of 4 mg/mL to induce RhlR expression. For RhlR agonism assays, activities of test compounds were measured relative to 1 mM BHL (the concentration required to induce a maximal level of RhlR activity). For RhlR antagonism assays, test compounds were competed against a concentration of BHL approximately equal to its EC50 value (10 μM). Activity was measured relative to 10 μM BHL. Inhibition was calculated by subtracting 100% from the relative activity value. Thus, 0% inhibition mimics represents no competitive displacement of 10 μM BHL by a test compound. In all assays, modifications were made to the standard Miller assay protocol to accommodate the use of the chlorophenol red-β-D-galactopyranoside (CPRG) β-galactosidase substrate. After cell lysis, 150 μL of the aqueous layer was transferred from each well of a solvent-resistant 96-well microtiter plate to the wells of a new clear, flat-bottom 96-well microtiter plate. CPRG (4 mg/mL in phosphate-buffered saline) was added to each well in 25 μL volumes. Plates were incubated at 30° C. until the positive control wells developed a red color (approximately 30 min). The amount of processed CPRG substrate was assessed by measuring the absorbance of each well at 570 nm. Enzymatic activity was calculated using the following equation: adjusted Miller units=1000·Abs570/(OD600·t·V),
(§3) where t is the incubation time of substrate with lysate and V is the volume of culture lysed.
Because LuxR-type receptors are often unstable in solution, preventing the use of in vitro assays to directly assess small molecule agonism and antagonism, reporter gene assays represent a standard method for screening small-molecule libraries for LuxR-type receptor modulation. Previously reported strains for this purpose were used in the current study.^38 Synthetic N-butanoyl L-homoserine lactone (BHL), the native ligand of RhlR, was used as the positive control for receptor activation. Commonly, agonists are measured relative to maximum possible receptor activation within a particular assay medium;^40 because the dose-response curve of BHL is distinctly shallow in these RhlR reporters, a high concentration of BHL is required to maximally activate RhlR. In this study, activation of compounds was measured relative to that elicited by 1 mM BHL (the concentration of BHL used causes no aberrant growth effects in the reporter strain). […]

[2] = biological target: T1, RhlR; experiment: E. coli RhlR reporter antagonism assay vs 10 μM BHL (JLD271/pJN105R2/pSC11-rhlI*); type: cell-based, P. aeruginosa; conditions: negative = agonism stronger than 10 μM BHL alone; for inhibition at 10 µM: read-out: % inhibition (10 μM), compound at 10 μM in the presence of 10 μM BHL; for inhibition at 1000 µM: read-out: % inhibition (1 mM), compound at 1 mM in the presence of 10 μM BHL
Procedure: as §1
as §2, with “For RhlR antagonism assays, test compounds were competed against a concentration of BHL approximately equal to its EC50 value (10 μM).” left out
as §3
The RhlR-modulatory activity of the J library compounds was assessed in a heterologous reporter strain (E. coli JLD271 harboring plasmids pJN105R2 and pSC11-rhlI*) in order to isolate the RhlR receptor from upstream QS regulation (e.g. regulation by LasR). Thus, the extent to which compounds were directly modulating RhlR could be determined. These assays were performed by incubating compound-treated, mid-log phase E. coli reporter cells in 96-well microtiter plates, followed by Miller assay evaluation of ß-galactosidase activity.
RhlR agonism and antagonism screens of each compound were performed initially at 10 μM.

[3] = biological target: T2, LasR (Pseudomonas aeruginosa, UniProt P25084); experiment: Selectivity of RhlR agonism over LasR agonism (E. coli LasR reporter JLD271/pJN105L/pSC11); type: cell-based, P. aeruginosa; conditions: RhlR % activity divided by LasR % activity, > = negligible activity in LasR reporter
T2 construct: expressed in transfected cells; host or cells: E. coli JLD271 (ΔsdiA) with pJN105L and pSC11
Procedure: as §1, §2
LasR assays were processed using the protocol for the substrate ortho-nitrophenyl-β-galactoside (ONPG) as previously described elsewhere.^53; and LasR antagonism assays were performed versus the EC50 for OdDHL (2 nM).
The selectivity of certain compounds for RhlR over LasR was measured using a LasR reporter strain (details above). Table 6 provides a comparison of selectivity of RhlR agonism over LasR agonism for exemplary compounds. Table 7 provides a comparison of selectivity of RhlR antagonism over LasR antagonism for exemplary compounds.

[4] = biological target: T1, RhlR; experiment: P. aeruginosa RhlR reporter agonism assay (PAO-JP2/prhlI-LVAgfp); type: cell-based; conditions: for Emax: read-out: Maximum Activation (%)

T1 sequence (P54292 whole entry): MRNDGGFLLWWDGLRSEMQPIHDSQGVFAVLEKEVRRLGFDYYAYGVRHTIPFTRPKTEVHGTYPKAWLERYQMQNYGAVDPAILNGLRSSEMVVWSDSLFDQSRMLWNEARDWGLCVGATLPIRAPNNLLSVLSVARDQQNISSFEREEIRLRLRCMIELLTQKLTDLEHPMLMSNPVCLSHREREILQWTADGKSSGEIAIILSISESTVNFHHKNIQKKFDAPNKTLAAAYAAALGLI
T2 sequence (P25084 whole entry): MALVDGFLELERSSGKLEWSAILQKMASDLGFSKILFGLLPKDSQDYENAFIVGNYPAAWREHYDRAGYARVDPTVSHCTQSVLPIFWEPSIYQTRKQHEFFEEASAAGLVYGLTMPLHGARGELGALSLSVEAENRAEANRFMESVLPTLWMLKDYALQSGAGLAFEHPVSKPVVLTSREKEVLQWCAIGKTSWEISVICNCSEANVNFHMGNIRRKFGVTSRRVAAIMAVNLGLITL

Structure (SMILES)	EC50 [1] [nM]	activation at 10 µM ([1]; E. coli reporter) [%]	Emax [1] [%]	inhibition at 10 µM [2] [%]	inhibition at 1000 µM [2] [%]	Fold selectivity of RhlR agonists over LasR agonism ([3]; tested concentration 1 mM)	Fold selectivity of RhlR agonists over LasR agonism ([3]; tested concentration 10 μm)	EC50 [4] [nM]	Emax [4] [%]	RhlR agonist potency in words ([1]; E. coli reporter)	RhlR agonist activity in words ([1]; E. coli reporter)	fold more potent than the native ligand ([1]; E. coli reporter, EC50 vs BHL) [fold]	Hill slope of agonism dose-response ([1]; E. coli reporter)
CCCC(=O)N[C@H]1CCSC1=O [RN8]	4870	71	102	-8	-75	4.5 fold	17 fold	14300	94	–	–	–	–
O=C(N[C@H]1CCOC1=O)C1CCC1 [Compound J24, cyclobutanoyl AHL]	1780	79	100	-66	-110	48 fold	>79^b fold	1410	95	significantly more potent than BHL; also recorded: rivaled in potency that of S4	strong	–	–
CC(C)CC(=O)N[C@H]1CCOC1=O [Compound J18, isovaleryl HL]	1020	86	105	-62	-123	>99^b fold	255^ fold	1420	94	significantly more potent than BHL	comparable RhlR activation to that of BHL	~10	–
CCCC(=O)NCC1CCCO1 (centres unmarked) [RN10]	–	0	–	1	57	–	–	–	–	–	–	–	–
CCCC(=O)N[C@H]1CCNC1=O [RN9]	–	1	–	-1	35	–	–	–	–	–	–	–	–
CC(C)C(=O)N[C@H]1CCOC1=O [Compound J17]	4890	62	95	-30	-112	–	–	–	–	significantly more potent than BHL	comparable RhlR activation to that of BHL	–	–
CCCC(=O)N[C@H]1CCOC1=O [BHL, N-butanoyl L-homoserine lactone, reference compound]	8950	51	100	–	–	18 fold	56 fold	8080	100	–	–	–	0.7
O=C(N[C@H]1CCSC1=O)C1CCC1 [RN15]	1720	–	106	-85	-114	11 fold	>88^b fold	1650	90	equipotent to the cyclobutanoic tail group parent, compound J24	–	–	–
